“And” between values parts separate entries of the source, which are not always exact repeats. Identical values can stand only once. Toxic doses and inconclusive results are not listed. How the source made its calls: active means survival T/C of 150% or more; inactive means T/C below 125% in these data. Peptide text beside a SMILES is read from it. * marks the point of attachment. Trt = c1ccc(C(c2ccccc2)(c2ccccc2)*)cc1; Cbz = O=C(OCc1ccccc1)*; Bn = c1ccc(C*)cc1; βAla = NCCC(=O)O
Test system: BDF1 mice, Lewis lung carcinoma iv, survival T/C
Test: NCI In Vivo Anticancer Drug Screen. Data for tumor model Lewis Lung Carcinoma (intravenous) in B6D2F1 (BDF1) mice
Conditions: endpoint: median survival time, higher = longer survival
Experimental: The antitumor activity of compounds was measured in mice bearing transplantable tumors. Survival or tumor size were measured and the results are expressed as the measurement made in the treated group (T) divided by the measurement made in the vehicle treated control group (C). The tumor model used in this assay is Lewis Lung Carcinoma (intravenous) in B6D2F1 (BDF1) mice

[1] = dose: 6.25 mg/kg/injection, schedule: Q01DX009 (ip), vehicle: saline with Tween-80
[2] = dose: 12.5 mg/kg/injection, schedule: Q01DX009 (ip), vehicle: saline with Tween-80
[3] = dose: 12.5 mg/kg/injection, schedule: Q01DX009 (ip), vehicle: Klucel (hydroxypropylcellulose) (HPC)
[4] = dose: 25.0 mg/kg/injection, schedule: Q01DX009 (ip), vehicle: Klucel (hydroxypropylcellulose) (HPC)
[5] = dose: 50.0 mg/kg/injection, schedule: Q01DX009 (ip), vehicle: Klucel (hydroxypropylcellulose) (HPC)
[6] = dose: 100.0 mg/kg/injection, schedule: Q01DX009 (ip), vehicle: Klucel (hydroxypropylcellulose) (HPC)

Measured: T/C

Nc1ncnc2c1ncn2C1OC(CO)C(O)C1O (stereo not drawn)
inactive: dose: 32.0 mg/kg/injection, schedule: Q01DX009 (ip), vehicle: Klucel (hydroxypropylcellulose) (HPC) 101 % of control | dose: 64.0 mg/kg/injection, schedule: Q01DX009 (ip), vehicle: Klucel (hydroxypropylcellulose) (HPC) 108 % of control | dose: 128.0 mg/kg/injection, schedule: Q01DX009 (ip), vehicle: Klucel (hydroxypropylcellulose) (HPC) 97 % of control | dose: 256.0 mg/kg/injection, schedule: Q01DX009 (ip), vehicle: Klucel (hydroxypropylcellulose) (HPC) 106 % of control | dose: 512.0 mg/kg/injection, schedule: Q01DX009 (ip), vehicle: Klucel (hydroxypropylcellulose) (HPC) 87 % of control

O=c1cc(CCl)[nH]nc1CCl
inactive: dose: 3.12 mg/kg/injection, schedule: Q01DX009 (ip), vehicle: saline with Tween-80 98 % of control | [1] 96 % of control | [2] 96 % of control

CN(N=O)C(=O)N[C@@H](C=O)[C@@H](O)[C@H](O)[C@H](O)CO
inactive: dose: 16.0 mg/kg/injection, schedule: Q01DX009 (ip), vehicle: other 109 % of control | dose: 25.0 mg/kg/injection, schedule: Q01DX009 (ip), vehicle: citric acid 110 % of control | dose: 32.0 mg/kg/injection, schedule: Q01DX009 (ip), vehicle: other 98 % of control | dose: 64.0 mg/kg/injection, schedule: Q01DX009 (ip), vehicle: other 112 % of control | dose: 100.0 mg/kg/injection, schedule: Q01DX009 (ip), vehicle: citric acid 124 % of control | dose: 128.0 mg/kg/injection, schedule: Q01DX009 (ip), vehicle: other 109 % of control

Nc1ccccc1N
inactive: [3] 96 % of control | [4] 107 % of control | [5] 101 % of control | [6] 91 % of control

CC[C@@]1(O)C[C@H](OC2CC(N(C)C)C(OC3CC(O)C(OC4CCC(=O)C(C)O4)C(C)O3)C(C)O2)c2c(cc3c(c2O)C(=O)c2c(O)ccc(O)c2C3=O)[C@H]1C(=O)OC (stereo partly drawn)
inactive: dose: 0.12 mg/kg/injection, schedule: Q01DX009 (ip), vehicle: water 103 % of control | dose: 0.25 mg/kg/injection, schedule: Q01DX009 (ip), vehicle: water 103 % of control and 107 % of control | dose: 0.5 mg/kg/injection, schedule: Q01DX009 (ip), vehicle: water 96 % of control and 101 % of control | dose: 0.88 mg/kg/injection, schedule: Q01DX009 (ip), vehicle: water 117 % of control | dose: 1.0 mg/kg/injection, schedule: Q01DX009 (ip), vehicle: water 103 % of control | dose: 1.7 mg/kg/injection, schedule: Q04DX003 (ip), vehicle: water 94 % of control | dose: 1.92 mg/kg/injection, schedule: Q04DX003 (ip), vehicle: water 110 % of control | dose: 2.9 mg/kg/injection, schedule: Q04DX003 (ip), vehicle: water 100 % of control and 117 % of control | dose: 3.9 mg/kg/injection, schedule: Q04DX003 (ip), vehicle: water 118 % of control | dose: 4.8 mg/kg/injection, schedule: Q01DX001 (ip), vehicle: water 109 % of control | dose: 4.8 mg/kg/injection, schedule: Q04DX003 (ip), vehicle: water 109 % of control and 122 % of control | dose: 6.86 mg/kg/injection, schedule: Q01DX001 (ip), vehicle: water 123 % of control | dose: 8.0 mg/kg/injection, schedule: Q04DX003 (ip), vehicle: water 104 % of control | dose: 13.3 mg/kg/injection, schedule: Q04DX003 (ip), vehicle: water 86 % of control

O=C(O)C1CC1.[Ag]
inactive: dose: 0.78 mg/kg/injection, schedule: Q01DX009 (ip), vehicle: distilled water + Tween-80 96 % of control | dose: 1.56 mg/kg/injection, schedule: Q01DX009 (ip), vehicle: distilled water + Tween-80 110 % of control | dose: 3.12 mg/kg/injection, schedule: Q01DX009 (ip), vehicle: distilled water + Tween-80 96 % of control | dose: 6.25 mg/kg/injection, schedule: Q01DX009 (ip), vehicle: distilled water + Tween-80 100 % of control | dose: 12.5 mg/kg/injection, schedule: Q01DX009 (ip), vehicle: distilled water + Tween-80 107 % of control

OCCOCC(F)(F)F
inactive: [1] 98 % of control | [2] 86 % of control | dose: 25.0 mg/kg/injection, schedule: Q01DX009 (ip), vehicle: saline with Tween-80 106 % of control | dose: 25.0 mg/kg/injection, schedule: Q01DX009 (ip), vehicle: saline 89 % of control | dose: 50.0 mg/kg/injection, schedule: Q01DX009 (ip), vehicle: saline with Tween-80 90 % of control | dose: 100.0 mg/kg/injection, schedule: Q01DX009 (ip), vehicle: saline with Tween-80 102 % of control | dose: 200.0 mg/kg/injection, schedule: Q01DX009 (ip), vehicle: saline with Tween-80 103 % of control

[N-]=[N+]=CC(=O)CCC(N)C(=O)O (stereo not drawn)
inactive: dose: 0.01 mg/kg/injection, schedule: Q01DX009 (ip), vehicle: saline 95 % of control | dose: 0.02 mg/kg/injection, schedule: Q01DX009 (ip), vehicle: saline 98 % of control | dose: 0.05 mg/kg/injection, schedule: Q01DX009 (ip), vehicle: saline 108 % of control | dose: 0.1 mg/kg/injection, schedule: Q01DX009 (ip), vehicle: saline 109 % of control and 111 % of control

COC(=O)C(CSC(c1ccccc1)(c1ccccc1)c1ccccc1)NC(=O)C(CSCc1ccccc1)NC(=O)CCNC(=O)OCc1ccccc1 (stereo not drawn) ({Cbz-βAla}-Cys(Bn)-Cys(Trt)-OMe; configuration not given here)
inactive: [3] 104 % of control | [4] 96 % of control | [5] 103 % of control | [6] 98 % of control | dose: 200.0 mg/kg/injection, schedule: Q01DX009 (ip), vehicle: Klucel (hydroxypropylcellulose) (HPC) 97 % of control

NC(=O)c1ncn(C2OC(CO)C(O)C2O)n1 (stereo not drawn)
inactive: dose: 10.0 mg/kg/injection, schedule: Q01DX009 (ip), vehicle: saline 110 % of control | dose: 20.0 mg/kg/injection, schedule: Q01DX009 (ip), vehicle: saline 110 % of control | dose: 40.0 mg/kg/injection, schedule: Q01DX009 (ip), vehicle: saline 101 % of control | dose: 80.0 mg/kg/injection, schedule: Q01DX009 (ip), vehicle: saline 97 % of control | dose: 160.0 mg/kg/injection, schedule: Q01DX009 (ip), vehicle: saline 106 % of control

O=C(N/N=C/c1ccccc1O)c1ccncc1
inactive: dose: 108.0 mg/kg/injection, schedule: Q01DX007 (ip), vehicle: Klucel (hydroxypropylcellulose) (HPC) 95 % of control | dose: 154.4 mg/kg/injection, schedule: Q01DX007 (ip), vehicle: Klucel (hydroxypropylcellulose) (HPC) 99 % of control | dose: 220.5 mg/kg/injection, schedule: Q01DX007 (ip), vehicle: Klucel (hydroxypropylcellulose) (HPC) 89 % of control | dose: 315.0 mg/kg/injection, schedule: Q01DX007 (ip), vehicle: Klucel (hydroxypropylcellulose) (HPC) 89 % of control

Cn1cnc([N+](=O)[O-])c1Sc1nc(N)nc2c1ncn2C1OC(CO)C(O)C1O (stereo not drawn)
inactive: dose: 0.78 mg/kg/injection, schedule: Q01DX009 (ip), vehicle: saline with Tween-80 97 % of control | dose: 1.56 mg/kg/injection, schedule: Q01DX009 (ip), vehicle: saline with Tween-80 116 % of control | dose: 3.13 mg/kg/injection, schedule: Q01DX009 (ip), vehicle: saline with Tween-80 105 % of control | dose: 6.25 mg/kg/injection, schedule: Q01DX009 (ip), vehicle: suspension in saline 107 % of control

CC(C)CC(NC(=O)CF)C(=O)O (stereo not drawn)
inactive: dose: 0.31 mg/kg/injection, schedule: Q01DX009 (ip), vehicle: saline 98 % of control | dose: 0.63 mg/kg/injection, schedule: Q01DX009 (ip), vehicle: saline 94 % of control | dose: 1.25 mg/kg/injection, schedule: Q01DX009 (ip), vehicle: saline 90 % of control | dose: 2.5 mg/kg/injection, schedule: Q01DX009 (ip), vehicle: saline 102 % of control | dose: 5.0 mg/kg/injection, schedule: Q01DX009 (ip), vehicle: saline 91 % of control

COc1ccc2nc3cc(Cl)ccc3c(NCCNCCNCCNc3c4ccc(Cl)cc4nc4ccc(OC)cc34)c2c1
inactive: dose: 3.12 mg/kg/injection, schedule: Q01DX009 (ip), vehicle: Klucel (hydroxypropylcellulose) (HPC) 99 % of control | dose: 6.25 mg/kg/injection, schedule: Q01DX009 (ip), vehicle: Klucel (hydroxypropylcellulose) (HPC) 103 % of control | [3] 89 % of control | [4] 97 % of control

C=C1C(=O)OC2C3OC(C)(CCC(O)C3COC(C)=O)CC(OC(=O)/C(=C/C)COC(C)=O)C12 (stereo not drawn)
inactive: dose: 0.75 mg/kg/injection, schedule: Q01DX009 (ip), vehicle: suspension in saline 112 % of control | dose: 1.5 mg/kg/injection, schedule: Q01DX009 (ip), vehicle: suspension in saline 103 % of control | dose: 3.0 mg/kg/injection, schedule: Q01DX009 (ip), vehicle: suspension in saline 89 % of control
